What was measured:
Integrin alpha-V/beta-3 = Integrin alpha-V/beta-3 (Homo sapiens, UniProt P05106+P06756); assay: Antagonist activity at alphavbeta3 integrin receptor (unknown origin) by cell-free ELISA; type: protein-complex assay
Integrin alpha-V/beta-5 [1] = molecular target: T1, Integrin alpha-V/beta-5 (Homo sapiens, UniProt P06756+P18084); assay: Antagonist activity at alphavbeta5 integrin receptor (unknown origin) by cell-free ELISA; type: protein-complex assay
Integrin alpha-5/beta-1 = Integrin alpha-5/beta-1 (Homo sapiens, UniProt P05556+P08648); assay: Antagonist activity at alpha5beta1 integrin receptor (unknown origin) by cell-free ELISA; type: protein-complex assay
Integrin alpha-V/beta-6 = Integrin alpha-V/beta-6 (Homo sapiens, UniProt P06756+P18564); assay: Antagonist activity at alphavbeta6 integrin receptor (unknown origin) by cell-free ELISA; type: protein-complex assay
Integrin alpha-V/beta-1 = Integrin alpha-V/beta-1 (Homo sapiens, UniProt P05556+P06756); assay: Antagonist activity at alphavbeta1 integrin receptor (unknown origin) by cell-free ELISA; type: protein-complex assay
Integrin alpha-V/beta-8 = Integrin alpha-V/beta-8 (Homo sapiens, UniProt P06756+P26012); assay: Antagonist activity at alphavbeta8 integrin receptor (unknown origin) by cell-free ELISA; type: protein-complex assay
Chain of Integrin alpha-V/beta-8 (P06756 31-889 limits assumed): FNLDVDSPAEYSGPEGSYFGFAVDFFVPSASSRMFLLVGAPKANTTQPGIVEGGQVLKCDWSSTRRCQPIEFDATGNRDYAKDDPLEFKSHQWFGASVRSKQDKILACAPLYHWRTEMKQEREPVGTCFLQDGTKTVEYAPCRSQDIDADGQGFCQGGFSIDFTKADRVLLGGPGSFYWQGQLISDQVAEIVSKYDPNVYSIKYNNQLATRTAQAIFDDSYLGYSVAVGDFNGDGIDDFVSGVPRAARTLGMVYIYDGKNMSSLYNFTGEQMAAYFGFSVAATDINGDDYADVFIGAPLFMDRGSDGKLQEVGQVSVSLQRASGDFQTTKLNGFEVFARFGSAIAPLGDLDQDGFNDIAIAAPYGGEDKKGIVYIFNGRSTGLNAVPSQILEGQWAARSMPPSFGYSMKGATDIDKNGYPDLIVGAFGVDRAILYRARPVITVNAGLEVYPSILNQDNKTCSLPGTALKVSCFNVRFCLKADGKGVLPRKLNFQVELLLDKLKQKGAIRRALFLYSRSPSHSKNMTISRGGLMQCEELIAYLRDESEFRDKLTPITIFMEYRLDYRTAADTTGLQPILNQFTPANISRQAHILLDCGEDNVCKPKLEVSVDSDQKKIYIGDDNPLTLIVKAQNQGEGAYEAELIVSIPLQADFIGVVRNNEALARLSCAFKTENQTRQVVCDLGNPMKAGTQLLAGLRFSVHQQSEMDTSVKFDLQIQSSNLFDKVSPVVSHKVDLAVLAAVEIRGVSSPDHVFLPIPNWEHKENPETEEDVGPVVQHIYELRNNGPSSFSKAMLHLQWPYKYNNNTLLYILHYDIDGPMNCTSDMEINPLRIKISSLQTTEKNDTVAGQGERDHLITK
Chain of Integrin alpha-V/beta-8 (P06756 891-1048 limits assumed): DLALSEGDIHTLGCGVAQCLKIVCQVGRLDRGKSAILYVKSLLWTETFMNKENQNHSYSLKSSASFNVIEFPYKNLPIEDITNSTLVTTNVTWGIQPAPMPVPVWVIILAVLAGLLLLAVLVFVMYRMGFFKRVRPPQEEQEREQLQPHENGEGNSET
Chain of Integrin alpha-V/beta-8 (P26012 43-769 limits assumed): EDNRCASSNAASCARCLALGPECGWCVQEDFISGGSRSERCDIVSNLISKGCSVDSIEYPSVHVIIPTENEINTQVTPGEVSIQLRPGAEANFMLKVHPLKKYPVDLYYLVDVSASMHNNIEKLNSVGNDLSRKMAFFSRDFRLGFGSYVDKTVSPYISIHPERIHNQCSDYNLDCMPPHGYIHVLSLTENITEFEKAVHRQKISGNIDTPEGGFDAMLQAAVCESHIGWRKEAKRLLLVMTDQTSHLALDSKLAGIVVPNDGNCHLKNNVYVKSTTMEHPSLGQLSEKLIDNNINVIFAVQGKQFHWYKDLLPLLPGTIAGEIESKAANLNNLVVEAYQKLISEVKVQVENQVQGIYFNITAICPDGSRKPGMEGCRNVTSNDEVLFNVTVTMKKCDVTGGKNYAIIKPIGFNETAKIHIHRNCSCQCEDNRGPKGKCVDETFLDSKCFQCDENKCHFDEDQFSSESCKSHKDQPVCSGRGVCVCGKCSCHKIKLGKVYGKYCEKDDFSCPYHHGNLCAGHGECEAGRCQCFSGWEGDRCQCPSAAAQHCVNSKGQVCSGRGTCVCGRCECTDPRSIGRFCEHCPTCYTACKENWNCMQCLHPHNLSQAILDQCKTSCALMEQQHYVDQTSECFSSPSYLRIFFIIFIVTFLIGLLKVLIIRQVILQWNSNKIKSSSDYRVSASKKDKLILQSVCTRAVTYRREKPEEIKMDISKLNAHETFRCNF

Integrin alpha2/beta1 = Integrin alpha2/beta1 (Homo sapiens, UniProt P05556+P17301); assay: Antagonist activity at alpha2beta1 integrin receptor (unknown origin) by cell-free ELISA; type: protein-complex assay
Chain of Integrin alpha2/beta1 (P05556 whole entry): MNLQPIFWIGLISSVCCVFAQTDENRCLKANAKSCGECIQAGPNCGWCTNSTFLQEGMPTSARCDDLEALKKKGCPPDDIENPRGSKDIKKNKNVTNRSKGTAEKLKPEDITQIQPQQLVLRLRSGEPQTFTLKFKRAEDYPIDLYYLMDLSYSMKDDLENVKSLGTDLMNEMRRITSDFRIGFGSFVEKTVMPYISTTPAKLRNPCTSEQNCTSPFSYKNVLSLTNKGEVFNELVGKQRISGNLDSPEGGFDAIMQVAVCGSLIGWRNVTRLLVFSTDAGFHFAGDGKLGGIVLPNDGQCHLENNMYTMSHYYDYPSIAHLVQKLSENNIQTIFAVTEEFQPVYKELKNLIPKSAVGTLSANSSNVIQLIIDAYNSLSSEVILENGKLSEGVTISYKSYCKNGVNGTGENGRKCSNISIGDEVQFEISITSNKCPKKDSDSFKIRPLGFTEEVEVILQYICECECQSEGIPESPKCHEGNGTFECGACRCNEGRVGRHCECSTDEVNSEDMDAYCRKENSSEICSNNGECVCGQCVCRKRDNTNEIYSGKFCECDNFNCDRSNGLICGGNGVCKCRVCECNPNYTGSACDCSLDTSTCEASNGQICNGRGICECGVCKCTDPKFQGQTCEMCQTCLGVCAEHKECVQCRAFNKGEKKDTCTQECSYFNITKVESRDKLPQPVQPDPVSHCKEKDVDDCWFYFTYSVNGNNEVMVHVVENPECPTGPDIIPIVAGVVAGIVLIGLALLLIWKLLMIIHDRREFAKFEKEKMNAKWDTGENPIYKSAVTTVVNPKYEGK
Chain of Integrin alpha2/beta1 (P17301 whole entry): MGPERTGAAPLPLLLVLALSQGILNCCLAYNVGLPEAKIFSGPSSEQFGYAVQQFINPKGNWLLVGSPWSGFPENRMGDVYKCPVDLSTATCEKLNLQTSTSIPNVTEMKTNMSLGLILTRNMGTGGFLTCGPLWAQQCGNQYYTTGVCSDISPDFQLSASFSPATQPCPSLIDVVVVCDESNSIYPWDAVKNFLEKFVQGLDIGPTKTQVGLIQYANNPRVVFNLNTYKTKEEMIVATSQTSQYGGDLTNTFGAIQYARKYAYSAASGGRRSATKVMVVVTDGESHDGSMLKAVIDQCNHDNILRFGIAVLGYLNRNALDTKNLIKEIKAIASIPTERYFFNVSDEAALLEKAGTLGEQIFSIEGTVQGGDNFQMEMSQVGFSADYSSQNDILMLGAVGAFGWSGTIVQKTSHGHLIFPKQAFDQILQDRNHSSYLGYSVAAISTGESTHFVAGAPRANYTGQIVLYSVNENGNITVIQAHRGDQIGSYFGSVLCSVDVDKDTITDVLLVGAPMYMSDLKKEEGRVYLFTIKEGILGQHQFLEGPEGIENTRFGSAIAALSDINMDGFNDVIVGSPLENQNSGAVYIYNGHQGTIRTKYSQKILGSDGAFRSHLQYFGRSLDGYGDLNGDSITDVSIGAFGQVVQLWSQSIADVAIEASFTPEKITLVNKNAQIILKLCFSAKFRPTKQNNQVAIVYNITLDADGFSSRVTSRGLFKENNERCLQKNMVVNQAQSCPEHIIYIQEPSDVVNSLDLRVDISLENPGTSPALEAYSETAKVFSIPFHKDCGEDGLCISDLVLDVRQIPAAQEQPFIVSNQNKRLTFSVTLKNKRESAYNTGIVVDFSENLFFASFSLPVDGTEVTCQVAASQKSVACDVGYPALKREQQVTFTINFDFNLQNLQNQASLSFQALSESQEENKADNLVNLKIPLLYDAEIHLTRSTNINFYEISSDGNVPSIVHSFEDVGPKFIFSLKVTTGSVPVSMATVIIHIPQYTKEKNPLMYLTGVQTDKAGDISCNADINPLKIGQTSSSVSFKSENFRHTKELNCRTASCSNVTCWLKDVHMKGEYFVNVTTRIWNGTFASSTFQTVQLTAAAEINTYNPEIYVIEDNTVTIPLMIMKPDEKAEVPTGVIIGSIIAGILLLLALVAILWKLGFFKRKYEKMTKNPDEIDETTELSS

Integrin alpha-4/beta-7 = molecular target: T2, Integrin alpha-4/beta-7 (Homo sapiens, UniProt P13612+P26010); assay: Antagonist activity at alpha4beta7 integrin receptor (unknown origin) by cell-free ELISA; type: protein-complex assay
T2 sequence (P13612 whole entry): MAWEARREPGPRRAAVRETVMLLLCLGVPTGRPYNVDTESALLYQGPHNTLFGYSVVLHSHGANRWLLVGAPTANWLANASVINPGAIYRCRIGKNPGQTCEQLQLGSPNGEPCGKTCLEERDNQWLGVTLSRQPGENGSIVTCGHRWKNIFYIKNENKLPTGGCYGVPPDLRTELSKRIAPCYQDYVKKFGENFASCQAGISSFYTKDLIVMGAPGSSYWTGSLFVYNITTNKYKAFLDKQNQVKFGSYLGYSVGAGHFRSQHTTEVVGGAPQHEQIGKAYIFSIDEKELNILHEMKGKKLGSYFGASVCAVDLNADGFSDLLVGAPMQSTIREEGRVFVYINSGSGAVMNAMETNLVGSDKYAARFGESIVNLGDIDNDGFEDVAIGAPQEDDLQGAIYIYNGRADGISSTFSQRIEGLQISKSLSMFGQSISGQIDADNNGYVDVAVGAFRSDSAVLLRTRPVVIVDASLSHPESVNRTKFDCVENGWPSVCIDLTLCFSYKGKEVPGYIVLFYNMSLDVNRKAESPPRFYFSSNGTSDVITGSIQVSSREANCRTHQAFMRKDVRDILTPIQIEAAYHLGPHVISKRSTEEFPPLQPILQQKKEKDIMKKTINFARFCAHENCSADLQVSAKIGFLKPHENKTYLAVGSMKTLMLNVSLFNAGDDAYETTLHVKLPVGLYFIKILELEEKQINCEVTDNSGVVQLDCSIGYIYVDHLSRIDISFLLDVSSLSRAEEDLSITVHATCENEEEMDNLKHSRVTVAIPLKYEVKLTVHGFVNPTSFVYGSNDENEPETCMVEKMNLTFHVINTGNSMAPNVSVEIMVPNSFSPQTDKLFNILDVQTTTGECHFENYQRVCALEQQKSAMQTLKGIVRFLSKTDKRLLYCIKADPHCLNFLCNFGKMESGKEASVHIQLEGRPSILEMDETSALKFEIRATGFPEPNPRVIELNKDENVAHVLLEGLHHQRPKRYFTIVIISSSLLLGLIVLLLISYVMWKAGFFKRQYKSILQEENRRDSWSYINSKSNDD
T2 sequence (P26010 whole entry): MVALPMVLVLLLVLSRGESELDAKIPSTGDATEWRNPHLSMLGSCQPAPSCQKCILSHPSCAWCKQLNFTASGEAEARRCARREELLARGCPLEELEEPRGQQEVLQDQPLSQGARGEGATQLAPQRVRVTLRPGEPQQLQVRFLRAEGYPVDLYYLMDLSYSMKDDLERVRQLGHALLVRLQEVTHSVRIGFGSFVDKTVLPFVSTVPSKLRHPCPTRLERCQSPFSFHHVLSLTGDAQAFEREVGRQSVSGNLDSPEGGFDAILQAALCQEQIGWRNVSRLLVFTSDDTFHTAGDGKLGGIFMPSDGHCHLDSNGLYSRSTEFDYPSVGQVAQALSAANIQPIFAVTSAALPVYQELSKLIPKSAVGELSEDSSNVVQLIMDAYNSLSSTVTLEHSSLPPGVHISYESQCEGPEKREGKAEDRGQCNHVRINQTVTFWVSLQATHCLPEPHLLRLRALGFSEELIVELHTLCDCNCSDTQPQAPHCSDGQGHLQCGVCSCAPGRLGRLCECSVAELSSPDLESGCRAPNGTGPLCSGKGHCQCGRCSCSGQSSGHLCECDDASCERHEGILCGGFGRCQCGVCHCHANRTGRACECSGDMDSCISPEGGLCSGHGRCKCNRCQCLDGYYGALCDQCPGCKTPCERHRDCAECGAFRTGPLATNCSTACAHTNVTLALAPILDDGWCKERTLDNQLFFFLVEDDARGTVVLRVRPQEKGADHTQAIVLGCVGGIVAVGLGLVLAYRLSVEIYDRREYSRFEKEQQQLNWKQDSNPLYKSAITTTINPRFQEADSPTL

[2] = molecular target: Integrin alpha-IIb/beta-3 (Homo sapiens, UniProt P05106+P08514); assay: Antagonist activity at alpha2bbeta3 integrin receptor (unknown origin) by cell-free ELISA; type: protein-complex assay
Integrin alpha-V/beta-5 [3] = molecular target: T1, Integrin alpha-V/beta-5; assay: Antagonist activity at alphavbeta5 integrin receptor (unknown origin) by cell-based ELISA
[4] = molecular target: Integrin alpha-10/Integrin beta-1 (Homo sapiens, UniProt O75578+P05556); assay: Antagonist activity at alpha10beta1 integrin receptor (unknown origin) by cell-free ELISA; type: protein-complex assay

T1 sequence (P06756 31-889 limits assumed): as the sequence (P06756 31-889 limits assumed) above
T1 sequence (P06756 891-1048 limits assumed): as the sequence (P06756 891-1048 limits assumed) above
T1 sequence (P18084 24-799 limits assumed): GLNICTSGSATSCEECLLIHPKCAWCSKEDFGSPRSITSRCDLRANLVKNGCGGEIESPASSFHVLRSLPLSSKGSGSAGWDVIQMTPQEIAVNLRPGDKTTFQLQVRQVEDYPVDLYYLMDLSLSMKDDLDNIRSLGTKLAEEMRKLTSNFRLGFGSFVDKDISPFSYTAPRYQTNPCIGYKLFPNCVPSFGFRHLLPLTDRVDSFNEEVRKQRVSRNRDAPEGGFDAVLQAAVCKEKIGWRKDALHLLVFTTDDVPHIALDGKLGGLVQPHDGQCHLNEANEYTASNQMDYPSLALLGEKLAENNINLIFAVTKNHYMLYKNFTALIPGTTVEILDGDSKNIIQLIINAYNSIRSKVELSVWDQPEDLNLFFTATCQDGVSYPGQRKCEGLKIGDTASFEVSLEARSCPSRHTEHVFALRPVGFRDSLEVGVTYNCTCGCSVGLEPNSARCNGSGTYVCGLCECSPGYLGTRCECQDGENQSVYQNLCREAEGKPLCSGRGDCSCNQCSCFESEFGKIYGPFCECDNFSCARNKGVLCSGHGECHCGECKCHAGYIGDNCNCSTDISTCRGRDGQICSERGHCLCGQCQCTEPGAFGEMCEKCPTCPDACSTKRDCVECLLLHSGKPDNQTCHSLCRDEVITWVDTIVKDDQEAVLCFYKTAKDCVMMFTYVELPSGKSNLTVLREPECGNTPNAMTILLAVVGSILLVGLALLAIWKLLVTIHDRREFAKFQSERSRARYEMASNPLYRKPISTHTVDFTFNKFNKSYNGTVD

| IC50 [2] [nM] | IC50 (Integrin alpha-V/beta-5 [3]) [nM] | IC50 [4] [nM] | Structure (SMILES) | IC50 (Integrin alpha-V/beta-3) [nM] | IC50 (Integrin alpha-V/beta-5 [1]) [nM] | IC50 (Integrin alpha-5/beta-1) [nM] | IC50 (Integrin alpha-V/beta-6) [nM] | IC50 (Integrin alpha-V/beta-1) [nM] | IC50 (Integrin alpha-V/beta-8) [nM] | IC50 (Integrin alpha2/beta1) [nM] | IC50 (Integrin alpha-4/beta-7) [nM] |
| --- | --- | --- | --- | --- | --- | --- | --- | --- | --- | --- | --- |
|  |  |  | COc1ccc(S(=O)(=O)N[C@@H](CNc2nc(C)nc(N3CCC(c4ccc5c(n4)NCCC5)CC3)c2C)C(=O)O)cc1 [GLPG-0187] | 3.7 | 2 | 7.7 | 1.4 | 1.3 | 1.2 | > 10000 | > 10000 |
| > 5000 | 61 | > 5000 | CC(C)(C)c1cc(Br)cc([C@H](CC(=O)O)NC(=O)CNC(=O)c2cc(O)cc(NC3=NCC(O)CN3)c2)c1 (some centres undefined) |  |  |  |  | 1.8 | 0.2 | > 5000 |  |

Reference: ChEMBL document CHEMBL3351286, “Strategies to inhibit tumor associated integrin receptors: rationale for dual and multi-antagonists” (J Med Chem, 2014)
